Reference: patent US20210221848A1, “POLYMYXIN DERIVATIVES AND THEIR USE IN COMBINATION THERAPY TOGETHER WITH DIFFERENT ANTIBIOTICS” (priority 2014, published 2021)
Where two headings read alike, the source gives them in different places.

Legend:
E. coli [1] = experiment: MIC in the presence of a fixed concentration (2 μg/mL) of Rifampicin; format: cell-based, Escherichia coli; details: Rifampicin 2 μg/mL, Table 5D
K. pneumoniae [2] = experiment: as above; format: cell-based, Klebsiella pneumoniae; details: Rifampicin 2 μg/mL, Table 5D
Experimental: (§1) The inoculum was prepared by making a direct suspension of isolated colonies (selected from an 18-24 hour Mueller-Hinton agar plate) adjusted to the 0.5 McFarland standard. […] The assays were performed in duplicate. […] In cases where the duplicate values varied by less than 2-fold, the lower of the two values is reported. If a variation of greater than 2-fold was observed, the assay was considered non-valid. Several of the compounds were subjected to multiple tests, and where this is the case, the MIC reflects the modal value obtained.

A. baumannii [3] = experiment: MIC in the presence of […] of rifampicin; format: cell-based, Acinetobacter baumannii; details: for MIC in combination with Rifampicin, A. baumannii ATCC BAA-747: A. baumannii ATCC BAA-747, Table 5D; for MIC in combination with Rifampicin, A. baumannii NCTC 13424: A. baumannii NCTC 13424, Table 5D
Experimental: as §1

E. coli [4] = test system: E. coli
K. pneumoniae [5] = test system: K. pneumoniae
A. baumannii [6] = test system: A. baumannii
[7] = test system: E. coli strains with elevated MICs to Polymyxin B; experiment: MIC against strains with elevated MICs to Polymyxin B; format: cell-based, Escherichia coli; details: Table 6D; for MIC E. coli 058: strain 058, elevated MIC to Polymyxin B; for MIC E. coli 059: strain 059, elevated MIC to Polymyxin B; for MIC E. coli 060: strain 060, elevated MIC to Polymyxin B; for MIC E. coli 061: strain 061, elevated MIC to Polymyxin B
How it was run: (§2)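 Values are modal MICs where compounds were tested repeatedly, otherwise the lower of duplicates agreeing within 2-fold, with greater variation rejected. Inoculum: isolated colonies from 18-24 h Mueller-Hinton agar, suspended directly to 0.5 McFarland.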

[8] = test system: K. pneumoniae strains with elevated MICs to Polymyxin B; experiment: as above; format: cell-based, Klebsiella pneumoniae; details: Table 6D; for MIC K. pneumoniae 062: strain 062, elevated MIC to Polymyxin B; for MIC K. pneumoniae 063: strain 063, elevated MIC to Polymyxin B; for MIC K. pneumoniae 064: strain 064, elevated MIC to Polymyxin B; for MIC K. pneumoniae 655: strain 655, elevated MIC to Polymyxin B
How it was run: as §2

[9] = test system: P. aeruginosa strains with elevated MICs to Polymyxin B; experiment: as above; format: cell-based, Pseudomonas aeruginosa; details: Table 6D; for MIC P. aeruginosa 065: strain 065, elevated MIC to Polymyxin B; for MIC P. aeruginosa 066: strain 066, elevated MIC to Polymyxin B; for MIC P. aeruginosa 067: strain 067, elevated MIC to Polymyxin B
How it was run: as §2

[10] = test system: A. baumanii strains with elevated MICs to Polymyxin B; experiment: as above; format: cell-based, Acinetobacter baumannii; details: Table 6D; for MIC A. baumannii 053: strain 053, elevated MIC to Polymyxin B; for MIC A. baumannii 056: strain 056, elevated MIC to Polymyxin B; for MIC A. baumannii 068: strain 068, elevated MIC to Polymyxin B; for MIC A. baumannii 070: strain 070, elevated MIC to Polymyxin B
How it was run: as §2

[11] = absence of a second agent, Table 6B

(5-Phenyl-piperidine)- 3-carbonyl polymyxin B nonapeptide [Example D7]
MIC in combination with Rifampicin, E. coli ATCC 25922 (E. coli [1]): 0.06 micrograms/mL | MIC in combination with Rifampicin, E. coli NCTC 13441 (E. coli [1]): 0.5 micrograms/mL | MIC in combination with Rifampicin, K. pneumoniae ATCC 4352 (K. pneumoniae [2]): 0.125 micrograms/mL | MIC in combination with Rifampicin, K. pneumoniae ATCC BAA-2146 (K. pneumoniae [2]): 0.5 micrograms/mL | MIC in combination with Rifampicin, A. baumannii ATCC BAA-747 (A. baumannii [3]): 1 micrograms/mL | MIC in combination with Rifampicin, A. baumannii NCTC 13424 (A. baumannii [3]): 0.03 micrograms/mL | MIC, E. coli ATCC 25922 (E. coli [4]; [11]): >8 micrograms/mL | MIC, E. coli NCTC 13441 (E. coli [4]; [11]): >8 micrograms/mL | MIC, K. pneumoniae ATCC 4352 (K. pneumoniae [5]; [11]): 8 micrograms/mL | MIC, K. pneumoniae ATCC BAA-2146 (K. pneumoniae [5]; [11]): >8 micrograms/mL | MIC, P. aeruginosa ATCC 27853 (P. aeruginosa; [11]): 2 micrograms/mL | MIC, P. aeruginosa CCUG 59347 (P. aeruginosa; [11]): >8 micrograms/mL | MIC, A. baumannii ATCC BAA-747 (A. baumannii [6]; [11]): >8 micrograms/mL | MIC, A. baumannii NCTC 13424 (A. baumannii [6]; [11]): >8 micrograms/mL

(5-Phenyl-piperidine)- 3-carbonyl polymyxin B nonapeptide [Example D8]
MIC in combination with Rifampicin, E. coli ATCC 25922 (E. coli [1]): ≤0.015 micrograms/mL | MIC in combination with Rifampicin, K. pneumoniae ATCC 4352 (K. pneumoniae [2]): 0.03 micrograms/mL | MIC in combination with Rifampicin, K. pneumoniae ATCC BAA-2146 (K. pneumoniae [2]): 0.06 micrograms/mL | MIC in combination with Rifampicin, A. baumannii ATCC BAA-747 (A. baumannii [3]): 0.03 micrograms/mL | MIC in combination with Rifampicin, A. baumannii NCTC 13424 (A. baumannii [3]): ≤0.015 micrograms/mL | MIC, E. coli ATCC 25922 (E. coli [4]; [11]): 0.125 micrograms/mL | MIC, E. coli NCTC 13441 (E. coli [4]; [11]): 0.25 micrograms/mL | MIC, K. pneumoniae ATCC 4352 (K. pneumoniae [5]; [11]): 0.125 micrograms/mL | MIC, K. pneumoniae ATCC BAA-2146 (K. pneumoniae [5]; [11]): 0.5 micrograms/mL | MIC, P. aeruginosa ATCC 27853 (P. aeruginosa; [11]): 0.5 micrograms/mL | MIC, P. aeruginosa CCUG 59347 (P. aeruginosa; [11]): 1 micrograms/mL | MIC, A. baumannii ATCC BAA-747 (A. baumannii [6]; [11]): 0.25 micrograms/mL | MIC, A. baumannii NCTC 13424 (A. baumannii [6]; [11]): 0.5 micrograms/mL

(cis-5-cyclohexyl- piperidine)-3-carbonyl polymyxin B nonapeptide [Example D10]
MIC in combination with Rifampicin, E. coli NCTC 13441 (E. coli [1]): 0.5 micrograms/mL | MIC in combination with Rifampicin, K. pneumoniae ATCC 4352 (K. pneumoniae [2]): 0.125 micrograms/mL | MIC in combination with Rifampicin, K. pneumoniae ATCC BAA-2146 (K. pneumoniae [2]): 0.25 micrograms/mL | MIC in combination with Rifampicin, A. baumannii ATCC BAA-747 (A. baumannii [3]): 0.5 micrograms/mL | MIC in combination with Rifampicin, A. baumannii NCTC 13424 (A. baumannii [3]): ≤0.015 micrograms/mL | MIC, E. coli ATCC 25922 (E. coli [4]; [11]): 4 micrograms/mL | MIC, E. coli NCTC 13441 (E. coli [4]; [11]): 4 micrograms/mL | MIC, K. pneumoniae ATCC 4352 (K. pneumoniae [5]; [11]): 8 micrograms/mL | MIC, K. pneumoniae ATCC BAA-2146 (K. pneumoniae [5]; [11]): >8 micrograms/mL | MIC, P. aeruginosa ATCC 27853 (P. aeruginosa; [11]): 1 micrograms/mL | MIC, P. aeruginosa CCUG 59347 (P. aeruginosa; [11]): 2 micrograms/mL | MIC, A. baumannii ATCC BAA-747 (A. baumannii [6]; [11]): >8 micrograms/mL | MIC, A. baumannii NCTC 13424 (A. baumannii [6]; [11]): 8 micrograms/mL

(trans-5-cyclohexyl- piperidine)-3-carbonyl polymyxin B nonapeptide [Example D12]
MIC in combination with Rifampicin, E. coli ATCC 25922 (E. coli [1]): 0.06 micrograms/mL | MIC in combination with Rifampicin, E. coli NCTC 13441 (E. coli [1]): 0.25 micrograms/mL | MIC in combination with Rifampicin, K. pneumoniae ATCC 4352 (K. pneumoniae [2]): 0.125 micrograms/mL | MIC in combination with Rifampicin, K. pneumoniae ATCC BAA-2146 (K. pneumoniae [2]): 0.25 micrograms/mL | MIC in combination with Rifampicin, A. baumannii ATCC BAA-747 (A. baumannii [3]): 0.5 micrograms/mL | MIC in combination with Rifampicin, A. baumannii NCTC 13424 (A. baumannii [3]): 0.03 micrograms/mL | MIC, E. coli ATCC 25922 (E. coli [4]; [11]): >8 micrograms/mL | MIC, E. coli NCTC 13441 (E. coli [4]; [11]): >8 micrograms/mL | MIC, K. pneumoniae ATCC 4352 (K. pneumoniae [5]; [11]): >8 micrograms/mL | MIC, K. pneumoniae ATCC BAA-2146 (K. pneumoniae [5]; [11]): >8 micrograms/mL | MIC, P. aeruginosa ATCC 27853 (P. aeruginosa; [11]): 1 micrograms/mL | MIC, P. aeruginosa CCUG 59347 (P. aeruginosa; [11]): 4 micrograms/mL | MIC, A. baumannii ATCC BAA-747 (A. baumannii [6]; [11]): >8 micrograms/mL | MIC, A. baumannii NCTC 13424 (A. baumannii [6]; [11]): >8 micrograms/mL

(trans-5-cyclohexyl- piperidine)-3-carbonyl polymyxin B nonapeptide [Example D13]
MIC in combination with Rifampicin, E. coli ATCC 25922 (E. coli [1]): 0.06 micrograms/mL | MIC in combination with Rifampicin, E. coli NCTC 13441 (E. coli [1]): 0.125 micrograms/mL | MIC in combination with Rifampicin, K. pneumoniae ATCC 4352 (K. pneumoniae [2]): 0.125 micrograms/mL | MIC in combination with Rifampicin, K. pneumoniae ATCC BAA-2146 (K. pneumoniae [2]): 0.125 micrograms/mL | MIC in combination with Rifampicin, A. baumannii ATCC BAA-747 (A. baumannii [3]): 0.125 micrograms/mL | MIC in combination with Rifampicin, A. baumannii NCTC 13424 (A. baumannii [3]): 0.06 micrograms/mL | MIC, E. coli NCTC 13441 (E. coli [4]; [11]): 0.125 micrograms/mL | MIC, K. pneumoniae ATCC 4352 (K. pneumoniae [5]; [11]): 0.125 micrograms/mL | MIC, K. pneumoniae ATCC BAA-2146 (K. pneumoniae [5]; [11]): 0.25 micrograms/mL | MIC, P. aeruginosa ATCC 27853 (P. aeruginosa; [11]): 0.5 micrograms/mL | MIC, P. aeruginosa CCUG 59347 (P. aeruginosa; [11]): 0.5 micrograms/mL | MIC, A. baumannii ATCC BAA-747 (A. baumannii [6]; [11]): 0.5 micrograms/mL | MIC, A. baumannii NCTC 13424 (A. baumannii [6]; [11]): 0.125 micrograms/mL

trans-5- cyclohexyl- piperidine-3- carbonyl L-Thr-L- Dap-polymyxin E heptapeptide [Example D86]
MIC E. coli 058 [7]: 0.5 micrograms/mL | MIC E. coli 059 [7]: 1 micrograms/mL | MIC E. coli 060 [7]: 1 micrograms/mL | MIC E. coli 061 [7]: 4 micrograms/mL | MIC K. pneumoniae 062 [8]: 1 micrograms/mL | MIC K. pneumoniae 063 [8]: 8 micrograms/mL | MIC K. pneumoniae 064 [8]: 1 micrograms/mL | MIC K. pneumoniae 655 [8]: 4 micrograms/mL | MIC P. aeruginosa 065 [9]: 0.5 micrograms/mL | MIC P. aeruginosa 066 [9]: 0.25 micrograms/mL | MIC P. aeruginosa 067 [9]: 32 micrograms/mL | MIC A. baumannii 053 [10]: 16 micrograms/mL | MIC A. baumannii 056 [10]: 50.25 micrograms/mL | MIC A. baumannii 068 [10]: 1 micrograms/mL | MIC A. baumannii 070 [10]: 2 micrograms/mL | MIC, E. coli ATCC 25922 (E. coli [4]; sole activity, Table 6C): 0.125 micrograms/mL | MIC, K. pneumoniae ATCC 4352 (K. pneumoniae [5]; sole activity, Table 6C): 0.03 micrograms/mL | MIC, P. aeruginosa ATCC 27853 (P. aeruginosa; sole activity, Table 6C): 0.25 micrograms/mL | MIC, P. aeruginosa CCUG 59347 (P. aeruginosa; sole activity, Table 6C): 0.5 micrograms/mL | MIC, A. baumannii ATCC BAA-747 (A. baumannii [6]; sole activity, Table 6C): 0.03 micrograms/mL | MIC, A. baumannii NCTC 13424 (A. baumannii [6]; sole activity, Table 6C): 0.06 micrograms/mL

trans-5-phenyl- piperidine-3- carbonyl L-Thr-L- Dap-polymyxin B heptapeptide [Example D84]
MIC E. coli 058 [7]: 4 micrograms/mL | MIC E. coli 059 [7]: 8 micrograms/mL | MIC E. coli 060 [7]: 4 micrograms/mL | MIC E. coli 061 [7]: 8 micrograms/mL | MIC K. pneumoniae 062 [8]: >64 micrograms/mL | MIC K. pneumoniae 063 [8]: 32 micrograms/mL | MIC K. pneumoniae 064 [8]: 8 micrograms/mL | MIC K. pneumoniae 655 [8]: 16 micrograms/mL | MIC P. aeruginosa 065 [9]: 8 micrograms/mL | MIC P. aeruginosa 066 [9]: 2 micrograms/mL | MIC P. aeruginosa 067 [9]: >64 micrograms/mL | MIC A. baumannii 053 [10]: >64 micrograms/mL | MIC A. baumannii 056 [10]: 32 micrograms/mL | MIC A. baumannii 068 [10]: 8 micrograms/mL | MIC A. baumannii 070 [10]: 16 micrograms/mL | MIC, E. coli ATCC 25922 (E. coli [4]; sole activity, Table 6C): 0.25 micrograms/mL | MIC, E. coli NCTC 13441 (E. coli [4]; sole activity, Table 6C): 0.06 micrograms/mL | MIC, K. pneumoniae ATCC 4352 (K. pneumoniae [5]; sole activity, Table 6C): 0.125 micrograms/mL | MIC, P. aeruginosa ATCC 27853 (P. aeruginosa; sole activity, Table 6C): 0.5 micrograms/mL | MIC, P. aeruginosa CCUG 59347 (P. aeruginosa; sole activity, Table 6C): 0.5 micrograms/mL | MIC, A. baumannii ATCC BAA-747 (A. baumannii [6]; sole activity, Table 6C): 0.06 micrograms/mL | MIC, A. baumannii NCTC 13424 (A. baumannii [6]; sole activity, Table 6C): 0.25 micrograms/mL
